Data on 20 compounds can be found in patent publication US20230113037A1 (Bayer Aktiengesellschaft, priority 2019, published 2023).

Read-outs that look alike come from different tables or passages of the source.

Test [1] deals with T1, AHR (Mus musculus, UniProt P30561).
T1 sequence (P30561 1-848 P471L/N533S/M589L): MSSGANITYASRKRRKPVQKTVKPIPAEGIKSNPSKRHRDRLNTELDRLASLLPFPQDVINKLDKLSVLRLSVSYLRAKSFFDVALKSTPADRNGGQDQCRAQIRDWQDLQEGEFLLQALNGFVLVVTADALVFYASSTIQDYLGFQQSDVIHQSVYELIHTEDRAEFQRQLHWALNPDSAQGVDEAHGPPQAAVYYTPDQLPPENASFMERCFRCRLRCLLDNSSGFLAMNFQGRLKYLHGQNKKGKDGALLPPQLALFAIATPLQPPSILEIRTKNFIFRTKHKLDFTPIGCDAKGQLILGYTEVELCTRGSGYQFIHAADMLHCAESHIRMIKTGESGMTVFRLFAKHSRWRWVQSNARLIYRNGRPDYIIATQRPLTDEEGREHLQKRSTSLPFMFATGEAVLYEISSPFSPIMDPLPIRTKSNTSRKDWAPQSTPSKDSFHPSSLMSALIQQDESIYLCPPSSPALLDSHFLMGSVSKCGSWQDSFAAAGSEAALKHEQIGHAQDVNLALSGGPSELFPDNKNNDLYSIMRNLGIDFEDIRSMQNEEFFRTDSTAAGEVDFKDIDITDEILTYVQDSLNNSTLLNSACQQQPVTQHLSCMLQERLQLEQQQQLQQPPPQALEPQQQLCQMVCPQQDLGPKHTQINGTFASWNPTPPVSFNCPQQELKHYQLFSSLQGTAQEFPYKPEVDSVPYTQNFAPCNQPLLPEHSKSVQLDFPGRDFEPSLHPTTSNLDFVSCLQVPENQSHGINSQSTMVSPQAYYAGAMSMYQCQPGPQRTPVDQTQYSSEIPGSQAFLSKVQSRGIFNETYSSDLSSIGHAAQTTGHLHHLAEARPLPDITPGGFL
In words: In vitro assay 3: antagonism in mouse cell line (AHR transactivation, firefly luciferase reporter, kynurenic acid prestimulated). The format is cell-based. In short, it runs like this: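 Mouse cells stably carrying a DRE-driven, AHR-inducible firefly luciferase reporter were prestimulated with the endogenous agonist kynurenic acid before compound addition. Luciferase activity was measured by luminescence and normalized to positive and negative controls, with cells lacking kynurenic acid serving as full-inhibition control. Repeat tests are reported as mean or median.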
Background: A reporter such as luciferase makes a cellular process visible.

Test [2] concerns the target T2, AHR (Homo sapiens, UniProt P35869).
T2 construct: U87 MG glioblastoma cells (ATCC #HTB-14) endogenously expressing AHR; endogenous in cells; host or cells: U87 MG glioblastoma cells (ATCC #HTB-14)
T2 sequence (P35869 11-848): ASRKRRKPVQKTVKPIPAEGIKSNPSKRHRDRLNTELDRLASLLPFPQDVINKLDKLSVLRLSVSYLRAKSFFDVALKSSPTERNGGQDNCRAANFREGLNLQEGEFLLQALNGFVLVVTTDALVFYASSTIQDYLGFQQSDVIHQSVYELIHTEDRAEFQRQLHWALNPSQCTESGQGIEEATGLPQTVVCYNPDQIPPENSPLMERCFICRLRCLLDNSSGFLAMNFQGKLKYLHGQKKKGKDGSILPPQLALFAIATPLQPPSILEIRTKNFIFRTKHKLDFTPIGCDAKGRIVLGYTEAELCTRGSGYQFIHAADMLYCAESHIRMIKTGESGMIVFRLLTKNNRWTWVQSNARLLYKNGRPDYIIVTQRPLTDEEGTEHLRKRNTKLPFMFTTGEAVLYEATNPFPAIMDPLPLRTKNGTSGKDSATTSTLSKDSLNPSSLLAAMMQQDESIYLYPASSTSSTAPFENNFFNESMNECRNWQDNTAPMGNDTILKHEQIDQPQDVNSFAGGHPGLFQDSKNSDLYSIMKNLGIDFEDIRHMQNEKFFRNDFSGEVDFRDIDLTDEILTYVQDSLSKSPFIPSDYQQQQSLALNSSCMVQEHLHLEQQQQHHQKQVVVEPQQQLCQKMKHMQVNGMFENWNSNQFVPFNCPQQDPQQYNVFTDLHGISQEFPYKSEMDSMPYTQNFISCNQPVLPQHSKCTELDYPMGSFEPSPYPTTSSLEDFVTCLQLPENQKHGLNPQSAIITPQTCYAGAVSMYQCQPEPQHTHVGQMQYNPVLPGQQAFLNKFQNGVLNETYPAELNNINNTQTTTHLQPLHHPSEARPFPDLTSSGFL
The test can be described thus: In vitro assay 1: antagonism in human cell line (AHR transactivation, firefly luciferase reporter, kynurenic acid prestimulated). The format is cell-based. Particulars: AHR Antagonism Human IC50 [M]. In short, it runs like this: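 U87 MG glioblastoma cells with endogenous AHR, stably carrying a DRE-driven firefly luciferase reporter and constitutive Renilla reporter, prestimulated with kynurenic acid before compound addition. Firefly and Renilla read by dual luciferase; Renilla flags toxicity; normalized to controls (150 μM kynurenic acid + 5 μM staurosporine as full inhibition); repeat values averaged or median.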

Setting [3] is: mouse Hepa 1c1c7 cells, 200 μM kynurenic acid, 20 hours, read-out: AHR Antagonism Mouse IC50.
Setting [4] is: read-out: AHR Antagonism Mouse IC50, mouse Hepa 1c1c7 cells, 200 μM kynurenic acid, 20 hours.
[5] abbreviates: Hepa 1c1c7 cells, 200 μM kynurenic acid, 20 hours, firefly luciferase reporter, read-out: AHR Antagonism Mouse IC50.

The term IC50 denotes the point on the concentration scale where inhibition reaches its midpoint. Take `N#Cc1cccc2c1nc(N[C@@H]1CCCCNC1=O)n1nc(-c3ccc(F)cc3)nc21` [Example 402, 2-(4-Fluorophenyl)-5-{[(3R)-2-oxoazepan-3-yl]amino}[1,2,4]triazolo[1,5-c]quinazoline-7-carbonitrile]: the IC50 on AHR [1] (setting [3]) amounted to 26.1 nM; at AHR [2] it was 8.32e-09 M.

With `O=C1NCCNCC1Nc1nc2cccc(C3CC3)c2c2nc(-c3cccc(F)c3)nn12` (stereo not shown) [Example 295, 6-{[10-cyclopropyl-2-(3-fluorophenyl)[1,2,4]triazolo[1,5-c]quinazolin-5-yl]amino}-1,4-diazepan-5-one], the IC50 was 2910 nM at AHR [1] (setting [3]) and over 2e-05 M on AHR [2].

In the case of `Cn1cc(-c2nc3c4cc(F)ccc4nc(N[C@@H]4CCCCNC4=O)n3n2)cn1` [Example 232, (3R)-3-{[9-fluoro-2-(1-methyl-1H-pyrazol-4-yl)[1,2,4]triazolo[1,5-c]quinazolin-5-yl]amino}azepan-2-one], the figures for the IC50 on AHR [1] (setting [4]) and against AHR [2] were 3.88 nM and 8.83e-09 M, respectively.

With `Cn1cc(-c2nc3c4cccc(C(F)(F)F)c4nc(N[C@@H]4CCCNC4=O)n3n2)cn1` [Example 585, (3R)-3-{[2-(1-methyl-1H-pyrazol-4-yl)-7-(trifluoromethyl)[1,2,4]triazolo[1,5-c]quinazolin-5-yl]amino}piperidin-2-one], the half-inhibitory concentration (IC50) is 830 nM on AHR [1] (setting [3]) and 6.91e-08 M against AHR [2].

Turning to `COc1ccc(-c2nc3c4cccc(Br)c4nc(N[C@@H]4CS(=O)(=O)CCNC4=O)n3n2)cc1` [Example 851, (6S)-6-{[7-bromo-2-(4-methoxyphenyl)[1,2,4]triazolo[1,5-c]quinazolin-5-yl]amino}-1λ^6,4-thiazepane-1,1,5-trione], the concentration for half-maximal inhibition (IC50) was 1.76 nM at AHR [1] (read-out: AHR Antagonism Mouse IC50, Hepa 1c1c7 cells, 200 μM kynurenic acid, 20 hours, firefly luciferase reporter) and 9.17e-10 M against AHR [2] (firefly luciferase reporter).

Consider `COc1ccc(-c2nc3c4cccc(Br)c4nc(N[C@@H]4CCCNC4=O)n3n2)cc1` [Example 223, (3R)-3-{[7-bromo-2-(4-methoxyphenyl)[1,2,4]triazolo[1,5-c]quinazolin-5-yl]amino}piperidin-2-one], for which the results for the IC50 on AHR [1] (setting [3]) and on AHR [2] were 111 nM and 5.32e-08 M, respectively.

`COc1ccc(-c2nc3c4cccc(Br)c4nc(N[C@@H]4CCCCNC4=O)n3n2)c(C(F)(F)F)c1` [Example 569, (3R)-3-({7-bromo-2-[4-methoxy-2-(trifluoromethyl)phenyl][1,2,4]triazolo[1,5-c]quinazolin-5-yl}amino)azepan-2-one]: the IC50 came to 4.3 nM on AHR [1] (setting [3]) and 8.4e-09 M against AHR [2].

As for `Cn1cc(-c2nc3c4c(C#N)cccc4nc(N[C@@H]4CCCCNC4=O)n3n2)cn1` [Example 247, 2-(1-methyl-1H-pyrazol-4-yl)-5-{[(3R)-2-oxoazepan-3-yl]amino}[1,2,4]triazolo[1,5-c]quinazoline-10-carbonitrile], the results for the IC50 on AHR [1] (setting [3]) and against AHR [2] were 591 nM and 3.08e-07 M, respectively.

Consider `Cc1ccccc1-c1nc2c3ccccc3nc(NC3CNCCNC3=O)n2n1` (single isomer, unassigned) [Example 46, 6-{[2-(2-methylphenyl)[1,2,4]triazolo[1,5-c]quinazolin-5-yl]amino}-1,4-diazepan-5-one], for which the IC50 at AHR [1] (setting [3]) amounted to 5.25 nM; at AHR [2], 2.93e-08 M.

Turning to `Cc1c(-c2nc3c4cccc(F)c4nc(N[C@@H]4CCCCNC4=O)n3n2)cnn1C` [Example 835, (3R)-3-{[2-(1,5-dimethyl-1H-pyrazol-4-yl)-7-fluoro[1,2,4]triazolo[1,5-c]quinaozlin-5-yl]amino}azepan-2-one], the IC50 at AHR [1] (setting [5]) was determined as 18.5 nM; against AHR [2] (firefly luciferase reporter), 1.54e-08 M.

For the compound `COc1ccc(-c2nc3c4cccc(N5CCCC5=O)c4nc(N[C@@H]4CCCCNC4=O)n3n2)cc1` [Example 1001, (3R)-3-{[2-(4-methoxyphenyl)-7-(2-oxopyrrolidin-1-yl)[1,2,4]triazolo[1,5-c]quinazolin-5-yl]amino}azepan-2-one], the values for the IC50 at AHR [1] (setting [5]) and against AHR [2] (firefly luciferase reporter) were 5040 nM and 3.54e-07 M, respectively.

As for `CC(C)(C)c1noc(-c2nc3c4ccccc4nc(N[C@@H]4CCCCNC4=O)n3n2)n1` [Example 134, (3R)-3-{[2-(3-tert-butyl-1,2,4-oxadiazol-5-yl)[1,2,4]triazolo[1,5-c]quinazolin-5-yl]amino}azepan-2-one], the values for the IC50 on AHR [1] (setting [3]) and on AHR [2] were 86.8 nM and 8.35e-08 M, respectively.

With `COc1cccc(-c2nc3c4ccccc4nc(N[C@H](CO)C(N)=O)n3n2)c1` [Example 79, N^2-[2-(3-methoxyphenyl)[1,2,4]triazolo[1,5-c]quinazolin-5-yl]-D-serinamide], the IC50 at AHR [1] (setting [3]) amounted to 52.2 nM; on AHR [2] it was 4.9e-08 M.

`CC(C)n1cc(-c2nc3c4cccc(C5CC5)c4nc(N[C@@H]4CNCCNC4=O)n3n2)cn1` [Example 955, (6R)-6-({7-cyclopropyl-2-[1-(propan-2-yl)-1H-pyrazol-4-yl][1,2,4]triazolo[1,5-c]quinazolin-5-yl}amino)-1,4-diazepan-5-one]: the figures for the IC50 at AHR [1] (setting [5]) and at AHR [2] (firefly luciferase reporter) were 452 nM and 5.57e-08 M, respectively.

As for `COc1ccc(-c2nc3c4cccc(Br)c4nc(N[C@H](C)C(=O)N4CCOCC4)n3n2)cc1` [Example 773, (2R)-2-{[7-bromo-2-(4-methoxyphenyl)[1,2,4]triazolo[1,5-c]quinazolin-5-yl]amino}-1-(morpholin-4-yl)propan-1-one], the values for the IC50 at AHR [1] (setting [3]) and against AHR [2] were 0.995 nM and 8.57e-10 M, respectively.

`CS(=O)(=O)c1ccc(-c2nc3c4ccccc4nc(N[C@@H]4CCNC4=O)n3n2)cc1` [Example 373, (3R)-3-({2-[4-(methanesulfonyl)phenyl][1,2,4]triazolo[1,5-c]quinazolin-5-yl}amino)pyrrolidin-2-one]: the IC50 on AHR [1] (setting [3]) was 514 nM; against AHR [2], 6.38e-07 M.

Take `Cc1c(-c2nc3c4ccccc4nc(N[C@@H]4CCCCNC4=O)n3n2)cnn1C` [Example 68, (3R)-3-{[2-(1,5-dimethyl-1H-pyrazol-4-yl)[1,2,4]triazolo[1,5-c]quinazolin-5-yl]amino}azepan-2-one]: the IC50 on AHR [1] (setting [4]) was 8.57 nM; against AHR [2] it was 1.03e-08 M.

For `COc1ccc(-c2nc3c4ccccc4nc(N[C@@H]4CCNC4=O)n3n2)cc1` [Example 39, (3R)-3-{[2-(4-methoxyphenyl)[1,2,4]triazolo[1,5-c]quinazolin-5-yl]amino}pyrrolidin-2-one], the IC50 on AHR [1] (setting [3]) worked out at 53.6 nM; on AHR [2] it was 1.59e-08 M.

Turning to `CC[C@@H](Nc1nc2ccccc2c2nc(-c3cc(C(F)(F)F)ccn3)nn12)C(N)=O` [Example 367, (2R)-2-({2-[4-(trifluoromethyl)pyridin-2-yl][1,2,4]triazolo[1,5-c]quinazolin-5-yl}amino)butanamide], the IC50 came out at 10.5 nM on AHR [1] (setting [3]) and 1.91e-07 M on AHR [2].

In the case of `CS(=N)(=O)c1ccccc1-c1nc2c3ccccc3nc(N[C@@H]3CCCCNC3=O)n2n1` (stereo partly drawn) [Example 650, (3R)-3-({2-[2-(S-methylsulfonimidoyl)phenyl][1,2,4]triazolo[1,5-c]quinazolin-5-yl}amino)azepan-2-one], the IC50 at AHR [1] (setting [4]) was determined as 67.1 nM; at AHR [2] it was 1.1e-07 M.
